Results as given in patent US11629156B2, “7-phenylethylamino-4H-pyrimido[4,5-d][1,3]oxazin-2-one compounds as mutant IDH1 and IDH2 inhibitors” (Eli Lilly and Company, priority 2016, dated 2023).

System: wild-type IDH1 (αKG) in HT1080 cells
Test: HT1080 cell assay, intracellular αKG
Format: cell-based
Conditions: highest concentration tested shown if curve did not reach 50%

SMILES	IC50
C=CC(=O)N1CCN(C(CC2CC2)c2ccc([C@H](C)Nc3ncc4c(n3)N(C)C(=O)OC4)cc2)CC1 (single isomer, unassigned) [Example 3]	> 0.2 µM
C=CC(=O)N1CCN(C(CC2CC2)c2ccc([C@H](C)Nc3ncc4c(n3)N(C)C(=O)OC4)cc2)CC1 (single isomer, unassigned) [Example 4]	> 0.2 µM
C=CC(=O)N1CCN(C(CC(C)C)c2ccc([C@H](C)Nc3ncc4c(n3)N(CC)C(=O)OC4)cc2)CC1 (single isomer, unassigned) [Example 7]	> 0.2 µM
C=CC(=O)N1CCN(C(CC(C)C)c2ccc([C@H](C)Nc3ncc4c(n3)N(CC)C(=O)OC4)cc2)CC1 (single isomer, unassigned) [Example 8]	> 0.2 µM
C=CC(=O)N1CCN(C(CC2CC2)c2ccc([C@H](C)Nc3cc4c(cn3)COC(=O)N4C)cc2)CC1 (single isomer, unassigned) [Example 9]	> 20 µM
C=CC(=O)N1CCN(C(CC2CC2)c2ccc([C@H](C)Nc3cc4c(cn3)COC(=O)N4C)cc2)CC1 (single isomer, unassigned) [Example 10]	> 20 µM
C=CC(=O)N1CCN(C(CC)c2ccc([C@H](C)Nc3ncc4c(n3)N(CC)C(=O)OC4)cc2)CC1 (single isomer, unassigned) [Example 11]	> 20 µM
C=CC(=O)N1CCN(C(CC)c2ccc([C@H](C)Nc3ncc4c(n3)N(CC)C(=O)OC4)cc2)CC1 (single isomer, unassigned) [Example 12]	> 20 µM
C=CC(=O)N1CCN(C(CCOC)c2ccc([C@H](C)Nc3ncc4c(n3)N(CC)C(=O)OC4)cc2)CC1 (single isomer, unassigned) [Example 13]	> 20 µM
C=CC(=O)N1CCN(C(CCOC)c2ccc([C@H](C)Nc3ncc4c(n3)N(CC)C(=O)OC4)cc2)CC1 (single isomer, unassigned) [Example 14]	> 20 µM
